This assay concerns the target T1, APOL1 G1 (Homo sapiens, UniProt O14791, I384M/S342G).
T1 sequence (O14791 28-398 S342G/I384M): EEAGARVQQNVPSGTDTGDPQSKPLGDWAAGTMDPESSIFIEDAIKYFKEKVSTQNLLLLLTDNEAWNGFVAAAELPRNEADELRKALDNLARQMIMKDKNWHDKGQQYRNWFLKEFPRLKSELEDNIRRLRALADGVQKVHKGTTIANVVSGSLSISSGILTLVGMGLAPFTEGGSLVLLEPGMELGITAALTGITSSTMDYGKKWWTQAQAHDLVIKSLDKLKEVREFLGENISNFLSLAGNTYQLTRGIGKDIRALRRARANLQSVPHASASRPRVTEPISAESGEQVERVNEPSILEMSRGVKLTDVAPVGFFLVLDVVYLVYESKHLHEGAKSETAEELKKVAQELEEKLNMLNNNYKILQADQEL
In words: MultiTox-Fluor Multiplex Cytotoxicity Assay, tet-inducible APOL1 G1 T-REx-HEK293 cells. The class given is cell-based. Also noted: expressed in transfected cells; host or cells: T-REx HEK293, clone G1 DC3.25 (pAAVS1-Puro-APOL1 G1). The conditions noted are these: for IC90: read-out: Multi-Tox Assay IC90; for Emax: read-out: Multi-Tox Assay Max Activity (%). Summed up: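 Over 24 h at 37 °C, compounds (10-point 3-fold series from 10 µM, duplicate) were co-incubated with 50 ng/mL tetracycline inducing APOL1 G1 in T-REx-HEK293 cells. Viability/cytotoxicity measured by MultiTox-Fluor as dead-to-live fluorescence ratio, expressed as percent of control between uninduced and induced wells and fitted.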

Setting [1] is: HEK293, Multi-Tox Assay, APOL1 variant (G0/G1/G2) of the HEK293 cells not given.
[2] abbreviates: Multi-Tox Assay, APOL1 variant not given.
The mark [3] stands for this setting: Multi-Tox Assay, APOL1 variant (G0/G1/G2) not stated in Table 46.
[4] abbreviates: Multi-Tox Assay, APOL1 variant not stated in Table 46.

The structures appear in SMILES notation. Like-named read-outs stand apart in the source and are kept apart here.

As a reminder, the IC90 is the concentration at which the effect reaches the 90% level. As for `CC1CC2(CC(c3cccnc3)N1)OCCc1cc(Cl)sc12` (racemic) [Compound 20, 2-chloro-2'-methyl-6'-(3-pyridyl)spiro[4,5-dihydrothieno[2,3-c]pyran-7, 4'-piperidine]], the IC90 under setting [1] was under 50 nM. Besides, under setting [2], the Emax was 99.4%.
As for `Cn1cc(C2CC3(CC(C(F)F)N2)OCCc2cc(C(F)(F)F)sc23)nn1` (stereo not drawn) [Compound 389, 2'-(difluoromethyl)-6'-(1-methyltriazol-4-yl)-2-(trifluoromethyl)spiro[4,5-dihydrothieno[2,3-c]pyran-7,4'-piperidine]], the 90% effect concentration (IC90) under setting [3] was over 500 nM. The Emax under setting [4] amounted to 99%.
For the compound `Clc1cc2c(s1)C1(C[C@@H](C3CC3)N[C@@H](C3CC3)C1)OCC2` (single isomer, unassigned) [Compound 206], the IC90 under setting [1] was 50 to 500 nM. Besides, the Emax under setting [2] was 99.3%.
With `Cc1cccnc1[C@@H]1C[C@]2(C[C@H](C)N1)OCCc1cc(Cl)sc12` (racemic) [Compound 167], under setting [1], the IC90 was over 500 nM. Besides, under setting [2], the “Multi-Tox Assay Max Activity (%)” value is given as 89.7%.
The corresponding values for `Cc1nnc(Cn2cc([C@@H]3C[C@]4(C[C@H](C)N3)OCC(F)(F)c3cc(Cl)sc34)nn2)[nH]1` [Compound 339] are 50 to 500 nM and 97.0%.
The corresponding values for `C[C@H]1C[C@@]2(C[C@@H](c3cn(Cc4cnccn4)nn3)N1)OC[C@@H](O)c1cc(Cl)sc12` [Compound 276] are 50 to 500 nM and 100.0%.
Consider `C[C@H]1C[C@@]2(C[C@@H](c3ccc(S(N)(=O)=O)cc3F)N1)OCCc1cc(Cl)sc12` (racemic) [Compound 78], for which the IC90 under setting [1] was under 50 nM. For the same compound, the Emax under setting [2] worked out at 99.7%.
Regarding `CCc1cc2c(s1)C(C)COC21C[C@@H](c2cn(C)nn2)N[C@@H](C)C1` (single isomer, unassigned) [Compound 10], the IC90 under setting [1] is under 50 nM. The “Multi-Tox Assay Max Activity (%)” value under setting [2] is listed as 99.7%.
The corresponding values for `C[C@H]1C[C@@]2(C[C@@H](c3cnc(C4CC4)nc3)N1)OCCc1cc(Cl)sc12` (racemic) [Compound 52] are under 50 nM and 99.7%.
The corresponding values for `C[C@H]1C[C@@]2(C[C@@H](c3cn(Cc4cocn4)nn3)N1)OC[C@@H](O)c1cc(Cl)sc12` [Compound 291] are 50 to 500 nM and 100.0%.
Turning to `Cc1cccc(OCC(O)Cn2cc([C@@H]3C[C@]4(C[C@H](C)N3)OCC(F)(F)c3cc(Cl)sc34)nn2)c1` (stereo partly drawn) [Compound 303], the 90% effect concentration (IC90) under setting [1] was in the range of 50 to 500 nM.
As to `Cc1nc([C@@H]2C[C@]3(C[C@H](C)N2)OCCc2cc(Cl)sc23)[nH]c1C` (racemic) [Compound 150], under setting [1], the concentration for an effect of 90% (IC90) is over 500 nM. The “Multi-Tox Assay Max Activity (%)” value under setting [2] came to 96.3%.
The corresponding values for `C[C@H]1C[C@@]2(C[C@@H](c3cn(Cc4cccc(CO)c4)nn3)N1)OCC(F)(F)c1cc(Cl)sc12` [Compound 313] are 50 to 500 nM and 98.0%.
As for `C[C@H]1C[C@@]2(C[C@@H](c3ncc(C(F)(F)F)[nH]3)N1)OCCc1cc(Cl)sc12` (racemic) [Compound 165], under setting [1], the concentration for an effect of 90% (IC90) is over 500 nM. The “Multi-Tox Assay Max Activity (%)” value under setting [2] is 92.0%.
Take `C[C@H]1C[C@@]2(C[C@@H](c3cccc(C#N)n3)N1)OCCc1cc(Cl)sc12` (racemic) [Compound 53]: the IC90 under setting [1] was under 50 nM. Also, the “Multi-Tox Assay Max Activity (%)” value under setting [2] came to 99.3%.
For `C[C@H]1C[C@@]2(C[C@@H](c3cn(CCCS(C)(=O)=O)nn3)N1)OCC(F)(F)c1cc(Cl)sc12` [Compound 344], under setting [1], the concentration for an effect of 90% (IC90) lay in the range of 50 to 500 nM.
`C[C@H]1C[C@@]2(C[C@@H](c3n[nH]c4ccccc34)N1)OCCc1cc(Cl)sc12` (racemic) [Compound 169]: the IC90 under setting [1] was over 500 nM. Besides, the “Multi-Tox Assay Max Activity (%)” value under setting [2] is 86.8%.
For `C[C@H]1C[C@@]2(C[C@@H](c3cn(Cc4ccc(S(C)(=O)=O)cc4)nn3)N1)OC[C@@H](O)c1cc(Cl)sc12` [Compound 238], the IC90 under setting [1] fell in the range of 50 to 500 nM. Also, the “Multi-Tox Assay Max Activity (%)” value under setting [2] was found to be 100%.
The corresponding values for `Cc1nc2c([C@@H]3C[C@]4(C[C@H](C)N3)OCCc3cc(Cl)sc34)cccc2o1` (racemic) [Compound 170] are over 500 nM and 89.7%.
Consider `C[C@H]1C[C@@]2(C[C@@H](c3cn(Cc4ccccc4S(C)(=O)=O)nn3)N1)OC[C@@H](O)c1cc(Cl)sc12` [Compound 231], for which the IC90 under setting [1] fell in the range of 50 to 500 nM. For the same compound, the “Multi-Tox Assay Max Activity (%)” value under setting [2] is recorded as 95.0%.
In the same order, the values of `C[C@H]1C[C@@]2(C[C@@H](c3ccc(O)c(F)c3)N1)OCCc1cc(Cl)sc12` [Compound 51] are under 50 nM and 99.7%.
In the same order, the values of `C[C@H]1C[C@@]2(C[C@@H](c3cccc4cn[nH]c34)N1)OCCc1cc(Cl)sc12` (racemic) [Compound 168] are over 500 nM and 89.0%.
With `C[C@H]1C[C@@]2(C[C@@H](c3ccc(=O)n(C)c3)N1)OCCc1cc(Cl)sc12` (racemic) [Compound 80], the IC90 under setting [1] is under 50 nM. The Emax under setting [2] was 99.7%.
Consider `CC1CC2(CC(CO)N1)OCCc1cc(Cl)sc12` (mixture of isomers) [Compound 210, (2-chloro-6'-methyl-spiro[4,5-dihydrothieno[2,3-c]pyran-7,4'-piperidine]-2'-yl)methanol], for which the 90% effect concentration (IC90) under setting [1] was over 500 nM. Moreover, under setting [2], the Emax turned out to be 92.2%.
Take `C[C@H]1C[C@@]2(C[C@@H](c3cn(Cc4cnccn4)nn3)N1)OCC(F)(F)c1cc(Cl)sc12` [Compound 317]: the IC90 under setting [1] is 50 to 500 nM. Under setting [2], the “Multi-Tox Assay Max Activity (%)” value turned out to be 98.0%.
`CC1CC2(CC(c3cnn(-c4cccnc4)c3)N1)OCCc1cc(Cl)sc12` (stereo not drawn) [Compound 40]: under setting [1], the IC90 was under 50 nM. Under setting [2], the “Multi-Tox Assay Max Activity (%)” value came to 100.0%.
Consider `CNC(=O)C(C)Cn1cc([C@@H]2C[C@]3(C[C@H](C)N2)OC[C@@H](O)c2cc(Cl)sc23)nn1` (stereo partly drawn) [Compound 258], for which the IC90 under setting [1] is over 500 nM. Also, the “Multi-Tox Assay Max Activity (%)” value under setting [2] amounted to 98.0%.
With `CCc1cc2c(s1)CCO[C@@]21C[C@@H](c2cnn(CCS(C)(=O)=O)c2)N[C@@H](C)C1` [Compound 5], under setting [1], the IC90 was 50 to 500 nM. Also, the “Multi-Tox Assay Max Activity (%)” value under setting [2] came out at 100.0%.
As for `C[C@H]1C[C@@]2(C[C@@H](c3cnn(CCO)c3)N1)OCCc1cc(Cl)sc12` (racemic) [Compound 56], under setting [1], the IC90 was under 50 nM. Further, the “Multi-Tox Assay Max Activity (%)” value under setting [2] is 99.8%.
In the same order, the values of `C[C@H]1C[C@@]2(C[C@@H](c3ncnn3C)N1)OCCc1cc(Cl)sc12` (racemic) [Compound 171] are over 500 nM and 71.8%.
In the same order, the values of `C[C@H]1C[C@@]2(C[C@@H](c3cn(Cc4cncs4)nn3)N1)OC[C@@H](O)c1cc(Cl)sc12` [Compound 248] are 50 to 500 nM and 101.0%.
The corresponding values for `COCC(O)Cn1cc([C@@H]2C[C@]3(C[C@H](C)N2)OCC(F)(F)c2cc(Cl)sc23)nn1` (stereo partly drawn) [Compound 342] are 50 to 500 nM and 98.0%.
Consider `C[C@H]1C[C@@]2(C[C@@H](c3cn(Cc4ccc(C#N)cc4)nn3)N1)OC[C@@H](O)c1cc(Cl)sc12` [Compound 253], for which the IC90 under setting [1] was 50 to 500 nM. The “Multi-Tox Assay Max Activity (%)” value under setting [2] came to 100.0%.
For the compound `C[C@H]1C[C@@]2(C[C@@H](c3cn(C)nn3)N1)OCC(F)(F)c1cc(Cl)sc12` [Compound 183, (2'S, 6'S, 7S)-2-chloro-4,4-difluoro-2'-methyl-6'-(1-methyltriazol-4-yl)spiro[5H-thieno[2,3-c]pyran-7,4'-piperidine]], the IC90 under setting [1] was under 50 nM. Moreover, the Emax under setting [2] turned out to be 99.5%.
The corresponding values for `C[C@@H]1CC2(C[C@H](C)N1)OCCc1cc(Br)sc12` (single isomer, unassigned) [Compound 197] are 50 to 500 nM and 99%.
Take `C[C@H]1C[C@@]2(C[C@@H](c3cnc(-c4cnn(C)c4)nc3)N1)OCCc1cc(Cl)sc12` [Compound 61]: the IC90 under setting [1] is under 50 nM. Under setting [2], the Emax was 99.7%.
In the case of `Cc1ccnc([C@@H]2C[C@]3(C[C@H](C)N2)OCCc2cc(Cl)sc23)c1` (racemic) [Compound 139], the IC90 under setting [1] was in the range of 50 to 500 nM. Moreover, the “Multi-Tox Assay Max Activity (%)” value under setting [2] is on record as 98.0%.
As for `C[C@H]1C[C@@]2(C[C@@H](c3cc(C4CC4)n[nH]3)N1)OCCc1cc(Cl)sc12` (racemic) [Compound 120], the IC90 under setting [1] was in the range of 50 to 500 nM.
Turning to `C[C@H]1C[C@@]2(C[C@@H](c3cn(C)nn3)N1)OCC(C)(O)c1cc(C(F)(F)F)sc12` (stereo partly drawn) [Compound 384, (2'S,6'S,7S)-2',4-dimethyl-6'-(1-methyltriazol-4-yl)-2-(trifluoromethyl)spiro[5H-thieno[2,3-c]pyran-7,4'-piperidine]-4-ol], under setting [3], the IC90 was under 50 nM. Further, under setting [4], the Emax came out at 100%.

(Values after patent publication EP4810040A2, “INHIBITORS OF APOL1 AND METHODS OF USING SAME” (priority 2020, dated 2022).)
